From ChEMBL document CHEMBL1135802, “Pyrrolo[1,3]benzothiazepine-based atypical antipsychotic agents. Synthesis, structure-activity relationship, molecular modeling, and biological studies” (J Med Chem, 2002) come the findings set out here.

Data set [1] concerns the target T1, Muscarinic acetylcholine receptor M1 (Rattus norvegicus, UniProt P08482).
T1 sequence (P08482 whole entry): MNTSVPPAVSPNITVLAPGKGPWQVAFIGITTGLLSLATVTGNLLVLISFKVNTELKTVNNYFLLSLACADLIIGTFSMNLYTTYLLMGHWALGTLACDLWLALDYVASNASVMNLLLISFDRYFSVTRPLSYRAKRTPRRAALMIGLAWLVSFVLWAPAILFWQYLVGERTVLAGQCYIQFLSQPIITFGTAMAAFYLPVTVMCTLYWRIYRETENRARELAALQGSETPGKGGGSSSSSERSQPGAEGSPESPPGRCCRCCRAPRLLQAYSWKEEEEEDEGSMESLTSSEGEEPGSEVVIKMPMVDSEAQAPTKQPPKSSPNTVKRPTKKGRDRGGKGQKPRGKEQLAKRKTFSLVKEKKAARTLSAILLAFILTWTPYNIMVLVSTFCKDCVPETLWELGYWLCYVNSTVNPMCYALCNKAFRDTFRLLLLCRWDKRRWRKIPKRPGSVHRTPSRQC
Description: biochemical. The format is tissue-based, Frontal cortex.
Description: Half-maximal inhibition of [3H]QNB binding to Muscarinic acetylcholine receptor M1 in rat frontal cortex homogenate

The target of a further data set is D(3) dopamine receptor (Rattus norvegicus, UniProt P19020). Details: species or system Tissue.
Sequence of D(3) dopamine receptor (P19020 whole entry): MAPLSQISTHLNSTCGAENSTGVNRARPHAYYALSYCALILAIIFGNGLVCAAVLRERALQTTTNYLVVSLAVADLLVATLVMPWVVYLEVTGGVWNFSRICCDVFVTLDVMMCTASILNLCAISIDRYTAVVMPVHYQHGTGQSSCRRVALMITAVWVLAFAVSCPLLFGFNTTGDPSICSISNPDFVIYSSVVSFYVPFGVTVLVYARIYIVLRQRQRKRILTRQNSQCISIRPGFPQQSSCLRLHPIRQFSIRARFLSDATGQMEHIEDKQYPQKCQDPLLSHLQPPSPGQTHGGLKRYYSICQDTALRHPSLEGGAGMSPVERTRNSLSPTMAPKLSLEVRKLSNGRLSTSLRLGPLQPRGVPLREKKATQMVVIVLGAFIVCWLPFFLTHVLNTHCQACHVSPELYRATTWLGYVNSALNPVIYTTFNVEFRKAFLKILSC
For data set [2], the species on record is Mus musculus. As to the kind of experiment: animal or person. The format is functional. Conditions: sc, dose 0.19 mg/kg, route subcutaneous.
Data set [3] is filed under the species Rattus norvegicus. The conditions noted are these: in vivo.
Description: Area under curve (AUC) value of Dopamine level after first treatment (7.4 uM/Kg) in dialysates collected from rat striatum.
The species entered for data set [4] is Rattus norvegicus. Conditions: in vivo. The source holds these as a separate data set.
Description: Area under curve (AUC) value of Dopamine level after total treatment in dialysates collected from rat striatum.
Data set [5] is filed under the species Rattus norvegicus. Conditions: in vivo. This is another data set of the same source.
For data set [6], the species on record is Rattus norvegicus. The conditions noted are these: in vivo. This is another data set of the same source.
Description: Area under curve (AUC) value of DOPAC level after total treatment in dialysates collected from rat striatum.
Data set [7] is filed under the species Mus musculus. As to the kind of experiment: animal or person. In kind it is functional. Conditions: sc, route subcutaneous.
For data set [8], the species on record is Rattus norvegicus. Conditions: in vivo. The source holds these as a separate data set.
Description: Area under curve (AUC) value of DOPAC level after first treatment (7.4 uM/Kg) in dialysates collected from rat striatum.
Data set [9] is filed under the species Rattus norvegicus. Conditions: in vivo. The source holds these as a separate data set.
Description: Area under curve (AUC) value of HVA level after first treatment (7.4 uM/Kg) in dialysates collected from rat striatum.
For data set [10], the species on record is Rattus norvegicus. Conditions: in vivo. The source holds these as a separate data set.
The species entered for data set [11] is Rattus norvegicus. The conditions noted are these: in vivo. This is another data set of the same source.
Description: Area under curve (AUC) value of HVA level after total treatment in dialysates collected from rat striatum.
Data set [12] is filed under the species Mus musculus. Description: animal or person. In kind it is functional. The conditions noted are these: route oral.
For data set [13], the species on record is Mus musculus. As to the kind of experiment: animal or person. The format is functional. The conditions noted are these: dose 7.9 mg/kg, route oral.
The species entered for data set [14] is Rattus norvegicus. The conditions noted are these: in vivo. The source holds these as a separate data set.
The species entered for data set [15] is Mus musculus. As to the kind of experiment: animal or person. The conditions noted are these: po. The format is functional.
The target of data set [16] is T2, Adrenergic receptor alpha-1 (Rattus norvegicus, UniProt P15823+P23944+P43140).
T2 sequence (P15823 whole entry): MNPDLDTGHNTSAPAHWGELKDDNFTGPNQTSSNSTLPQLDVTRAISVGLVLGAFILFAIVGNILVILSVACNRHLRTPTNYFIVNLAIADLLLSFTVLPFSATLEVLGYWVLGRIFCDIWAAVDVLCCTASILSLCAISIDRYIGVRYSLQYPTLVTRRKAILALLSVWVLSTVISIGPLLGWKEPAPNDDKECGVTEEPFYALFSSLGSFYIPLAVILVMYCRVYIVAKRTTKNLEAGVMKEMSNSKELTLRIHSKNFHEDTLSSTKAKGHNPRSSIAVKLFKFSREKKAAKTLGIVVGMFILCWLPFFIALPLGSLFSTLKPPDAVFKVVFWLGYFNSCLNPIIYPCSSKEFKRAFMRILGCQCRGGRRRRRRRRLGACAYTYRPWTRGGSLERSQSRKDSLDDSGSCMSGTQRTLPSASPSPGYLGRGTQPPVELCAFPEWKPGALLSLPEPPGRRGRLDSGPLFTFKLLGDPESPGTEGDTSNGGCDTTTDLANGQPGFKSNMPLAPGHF
T2 sequence (P23944 whole entry): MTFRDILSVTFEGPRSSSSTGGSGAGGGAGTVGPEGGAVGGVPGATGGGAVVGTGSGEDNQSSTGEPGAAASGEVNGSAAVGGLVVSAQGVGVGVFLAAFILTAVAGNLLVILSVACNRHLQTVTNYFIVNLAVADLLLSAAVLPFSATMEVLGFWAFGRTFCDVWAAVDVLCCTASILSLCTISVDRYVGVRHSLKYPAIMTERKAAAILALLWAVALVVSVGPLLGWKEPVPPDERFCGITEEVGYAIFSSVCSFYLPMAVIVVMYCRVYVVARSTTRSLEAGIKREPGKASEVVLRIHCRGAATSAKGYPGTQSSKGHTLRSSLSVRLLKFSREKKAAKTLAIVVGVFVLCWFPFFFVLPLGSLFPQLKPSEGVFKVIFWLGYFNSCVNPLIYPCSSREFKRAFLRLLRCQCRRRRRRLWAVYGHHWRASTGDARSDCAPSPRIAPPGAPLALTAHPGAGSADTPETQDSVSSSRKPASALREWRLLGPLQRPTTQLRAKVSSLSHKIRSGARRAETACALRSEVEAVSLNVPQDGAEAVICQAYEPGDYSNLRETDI
T2 sequence (P43140 whole entry): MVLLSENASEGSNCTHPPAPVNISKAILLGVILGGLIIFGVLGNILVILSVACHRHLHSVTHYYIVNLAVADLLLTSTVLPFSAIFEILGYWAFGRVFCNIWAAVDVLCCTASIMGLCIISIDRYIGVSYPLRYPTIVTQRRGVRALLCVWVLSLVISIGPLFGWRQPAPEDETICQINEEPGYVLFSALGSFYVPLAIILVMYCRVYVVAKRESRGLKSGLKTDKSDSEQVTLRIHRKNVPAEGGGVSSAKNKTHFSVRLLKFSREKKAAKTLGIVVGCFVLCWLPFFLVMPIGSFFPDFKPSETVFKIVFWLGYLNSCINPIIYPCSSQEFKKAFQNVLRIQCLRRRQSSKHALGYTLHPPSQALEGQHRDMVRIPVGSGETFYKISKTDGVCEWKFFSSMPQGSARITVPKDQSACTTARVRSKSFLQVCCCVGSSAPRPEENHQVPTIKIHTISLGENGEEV
In kind it is tissue-based, Frontal cortex.
Description: Inhibition of [3H]-prazosin binding to Alpha-1 adrenergic receptor in rat frontal cortex homogenate

For data set [17], the species on record is Mus musculus. Description: animal or person. The format is functional. Conditions: sc, route subcutaneous. The source holds these as a separate data set.
Description: Ability to antagonize apomorphine-induced climbing in mice after administration of 0.10 mg/kg dose subcutaneously

Description for D(3) dopamine receptor: Half-maximal inhibition of [3H]-7-OH-DPAT binding to Dopamine receptor D3 in rat tissue homogenate

Usually Ki stands for the equilibrium dissociation constant of an inhibitor or competing ligand from its target. The low end stands for a stronger hold on the target, the high end for a looser hold on the target. Usually ED50 stands for the midpoint of the dose-response relation. Low readings indicate an effect at a small dose, high ones a need for a large dose. On to `CN1CCN([C@@H]2Cn3cccc3Sc3ccc(Cl)cc32)CC1`, for which the Ki in data set [1] came out at 287 nM; at D(3) dopamine receptor, 110 nM; in [16] it was 0.82 nM. For the same compound, the 50% effective dose (ED50) at […] in the data set filed under Mus musculus [2] is 0.48 µmol/kg; in the data set filed under Mus musculus [13], 19.5 µmol/kg; in the data set filed under Mus musculus [15], 115 µmol/kg. For the same compound, the AUC turned out to be 133.6 in the data set filed under Rattus norvegicus [3]; 156.3 in the data set listed under Rattus norvegicus [4]; 20.35 in the data set filed under Rattus norvegicus [5]; 174.4 in the data set filed under Rattus norvegicus [6]; 145.4 in the data set listed under Rattus norvegicus [8]; 133 in the data set filed under Rattus norvegicus [9]. Also, the figures for the AUC in the data set filed under Rattus norvegicus [10], in the data set listed under Rattus norvegicus [11] and in the data set listed under Rattus norvegicus [14] were 179, 163.4 and 193.8, respectively. In addition, the ED50 in the data set listed under Mus musculus [7] was 45 µmol/kg; in the data set filed under Mus musculus [12] it was 14.3 µmol/kg; in the data set listed under Mus musculus [17], 0.24 µmol/kg.
